Test results: PMC12951562, “SH2scan: Mapping SH2 Domain-Ligand Binding Selectivity for Inhibitors and Degraders” (Journal of Medicinal Chemistry, 2026)
Like-named read-outs stand apart in the source and are kept apart here. Non-standard residues stand in square brackets, D forms with d. Residues, ends and D or L forms follow the SMILES beside them. pY = N[C@@H](Cc1ccc(OP(=O)(O)O)cc1)C(=O)O

Assays:
Assay in all cases: biochemical
Type in all cases: binding
[1] = molecular target: T1, BLK (Homo sapiens, UniProt P51451); settings: for remaining activity at 10 µM: read-out: percent of DMSO vehicle control
T1 construct: the DNA-tagged SH2 domain concentrations used in this study were <0.1 nM; made in house; host or cells: HEK293 (transient transfection; unpurified extract)

[2] = molecular target: T2, DAPP1 (Homo sapiens, UniProt Q9UN19); settings: for percent of DMSO vehicle control at 10 µM / remaining activity at 10 µM: read-out: percent of DMSO vehicle control
T2 construct: the DNA-tagged SH2 domain concentrations used in this study were <0.1 nM; made in house; host or cells: HEK293 (transient transfection; unpurified extract)
T2 sequence (Q9UN19 35-129 limits assumed): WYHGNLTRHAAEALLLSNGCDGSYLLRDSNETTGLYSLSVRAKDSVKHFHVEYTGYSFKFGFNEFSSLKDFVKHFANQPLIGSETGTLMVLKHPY

[3] = molecular target: T3, FGR (Homo sapiens, UniProt P09769); settings: for remaining activity at 10 µM: read-out: percent of DMSO vehicle control
T3 construct: the DNA-tagged SH2 domain concentrations used in this study were <0.1 nM; made in house; host or cells: HEK293 (transient transfection; unpurified extract)

[4] = molecular target: T4, GRB14 (Homo sapiens, UniProt Q14449); settings: for remaining activity at 10 µM: read-out: percent of DMSO vehicle control
T4 construct: the DNA-tagged SH2 domain concentrations used in this study were <0.1 nM; made in house; host or cells: HEK293 (transient transfection; unpurified extract)
T4 sequence (Q14449 439-535 limits assumed): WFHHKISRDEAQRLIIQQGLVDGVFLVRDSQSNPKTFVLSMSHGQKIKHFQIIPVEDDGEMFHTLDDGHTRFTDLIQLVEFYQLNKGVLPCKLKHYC

[5] = molecular target: T5, SH2D1B (Homo sapiens, UniProt O14796); settings: for remaining activity at 10 µM: read-out: percent of DMSO vehicle control
T5 construct: made in house; host or cells: HEK293 (transient transfection), unpurified extract
T5 sequence (O14796 1-132): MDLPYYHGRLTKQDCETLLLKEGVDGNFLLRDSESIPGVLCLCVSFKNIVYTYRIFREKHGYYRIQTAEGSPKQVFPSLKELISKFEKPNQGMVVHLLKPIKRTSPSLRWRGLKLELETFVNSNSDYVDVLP

[6] = molecular target: T6, SOCS3 (Homo sapiens, UniProt O14543); settings: for remaining activity at 10 µM: read-out: percent of DMSO vehicle control; for KD: dose-response
T6 construct: made in house; host or cells: HEK293 (transient transfection), unpurified extract
T6 sequence (O14543 1-225): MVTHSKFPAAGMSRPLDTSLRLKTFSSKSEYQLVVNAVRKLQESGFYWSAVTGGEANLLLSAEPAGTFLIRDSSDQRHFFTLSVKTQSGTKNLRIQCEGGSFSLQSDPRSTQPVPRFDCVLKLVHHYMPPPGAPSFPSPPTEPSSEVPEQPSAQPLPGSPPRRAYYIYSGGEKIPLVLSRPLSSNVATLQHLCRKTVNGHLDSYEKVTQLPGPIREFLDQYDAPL

[7] = molecular target: T7, SOCS4 (Homo sapiens, UniProt Q8WXH5); settings: for Kd: dose-response; for remaining activity at 10 µM: read-out: percent of DMSO vehicle control
T7 construct: made in house; host or cells: HEK293 (transient transfection), unpurified extract
T7 sequence (Q8WXH5 1-440): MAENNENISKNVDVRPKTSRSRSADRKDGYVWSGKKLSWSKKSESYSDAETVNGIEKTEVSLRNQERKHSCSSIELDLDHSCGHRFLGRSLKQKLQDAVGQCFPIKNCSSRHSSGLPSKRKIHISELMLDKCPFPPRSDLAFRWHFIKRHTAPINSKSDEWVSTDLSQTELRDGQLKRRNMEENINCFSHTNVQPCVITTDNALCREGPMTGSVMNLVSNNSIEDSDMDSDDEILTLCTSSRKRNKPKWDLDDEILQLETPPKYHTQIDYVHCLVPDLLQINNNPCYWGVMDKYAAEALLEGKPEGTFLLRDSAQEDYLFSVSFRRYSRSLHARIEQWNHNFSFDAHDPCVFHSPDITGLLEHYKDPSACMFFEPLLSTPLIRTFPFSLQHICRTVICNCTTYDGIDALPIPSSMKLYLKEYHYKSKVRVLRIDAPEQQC

[8] = molecular target: T8, STAT4 (Homo sapiens, UniProt Q14765); settings: for percent of DMSO vehicle control: primary screen, 10 μM
T8 construct: made in house; host or cells: HEK293 (transient transfection), unpurified extract
T8 sequence (Q14765 1-748): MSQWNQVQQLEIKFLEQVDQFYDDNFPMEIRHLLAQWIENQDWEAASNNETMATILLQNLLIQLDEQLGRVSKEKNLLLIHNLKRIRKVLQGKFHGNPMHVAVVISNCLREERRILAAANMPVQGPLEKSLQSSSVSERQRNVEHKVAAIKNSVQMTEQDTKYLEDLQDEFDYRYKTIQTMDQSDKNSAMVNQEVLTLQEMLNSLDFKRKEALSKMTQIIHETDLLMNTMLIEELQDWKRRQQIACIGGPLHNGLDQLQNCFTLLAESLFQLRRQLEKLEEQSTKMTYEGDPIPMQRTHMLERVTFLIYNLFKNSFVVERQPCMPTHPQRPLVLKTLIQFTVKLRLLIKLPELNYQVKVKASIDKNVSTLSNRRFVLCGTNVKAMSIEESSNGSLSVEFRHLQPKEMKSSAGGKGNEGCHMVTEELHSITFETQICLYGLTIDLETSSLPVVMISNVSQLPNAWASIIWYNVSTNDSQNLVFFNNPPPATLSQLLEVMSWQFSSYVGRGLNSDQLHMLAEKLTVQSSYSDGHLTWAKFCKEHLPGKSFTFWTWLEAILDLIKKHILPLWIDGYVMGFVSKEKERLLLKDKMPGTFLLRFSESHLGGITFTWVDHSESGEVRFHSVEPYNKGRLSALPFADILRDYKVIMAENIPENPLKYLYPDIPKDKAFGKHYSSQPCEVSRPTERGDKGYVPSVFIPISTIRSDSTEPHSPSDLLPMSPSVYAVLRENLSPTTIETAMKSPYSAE

[9] = molecular target: T9, TNS4 (Homo sapiens, UniProt Q8IZW8); settings: for remaining activity at 10 µM: read-out: percent of DMSO vehicle control; for KD: dose-response
T9 construct: made in house; host or cells: HEK293 (transient transfection), unpurified extract
T9 sequence (Q8IZW8 19-715): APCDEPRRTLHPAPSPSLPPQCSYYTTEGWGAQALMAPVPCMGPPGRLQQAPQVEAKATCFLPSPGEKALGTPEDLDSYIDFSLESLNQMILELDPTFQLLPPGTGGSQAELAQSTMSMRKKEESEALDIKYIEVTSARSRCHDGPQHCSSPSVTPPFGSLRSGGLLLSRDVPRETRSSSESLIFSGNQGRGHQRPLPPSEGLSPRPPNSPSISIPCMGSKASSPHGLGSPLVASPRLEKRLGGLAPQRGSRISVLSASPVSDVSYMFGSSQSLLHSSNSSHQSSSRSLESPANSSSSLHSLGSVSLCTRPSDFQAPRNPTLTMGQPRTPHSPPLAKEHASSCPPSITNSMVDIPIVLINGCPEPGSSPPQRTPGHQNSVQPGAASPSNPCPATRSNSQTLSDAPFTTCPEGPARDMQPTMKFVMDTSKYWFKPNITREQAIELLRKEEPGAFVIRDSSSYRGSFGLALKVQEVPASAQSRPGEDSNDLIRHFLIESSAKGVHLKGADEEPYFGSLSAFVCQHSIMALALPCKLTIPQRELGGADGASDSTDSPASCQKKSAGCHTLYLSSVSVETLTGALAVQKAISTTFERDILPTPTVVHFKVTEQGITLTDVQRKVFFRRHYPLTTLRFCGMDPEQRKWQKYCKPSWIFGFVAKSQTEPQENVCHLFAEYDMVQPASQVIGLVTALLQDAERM

T1 sequence (P51451 124-220 limits assumed): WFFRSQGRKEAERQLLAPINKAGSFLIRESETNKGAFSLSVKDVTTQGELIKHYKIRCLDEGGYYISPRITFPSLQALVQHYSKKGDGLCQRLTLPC
T3 sequence (P09769 144-241 limits assumed): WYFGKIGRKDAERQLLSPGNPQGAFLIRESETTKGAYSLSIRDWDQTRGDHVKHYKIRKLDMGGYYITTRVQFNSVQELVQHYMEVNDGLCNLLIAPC

Compound: NC(=O)CC[C@H](NC(=O)[C@@H]1CC[C@@H]2CCN(C(=O)CCCCCC#Cc3cccc4c3CN(C3CCC(=O)NC3=O)C4=O)C[C@H](NC(=O)c3cc4cc(C(F)(F)P(=O)(O)O)ccc4[nH]3)C(=O)N21)C(=O)NC(c1ccccc1)c1ccccc1 (some centres unmarked) [SD-36]
- remaining activity at 10 µM [1]: 70.6 ± 5.9%
- percent of DMSO vehicle control at 10 µM [2]: 126%
- remaining activity at 10 µM [3]: 82 ± 28%
- remaining activity at 10 µM [4]: 43.2 ± 2.9%
- remaining activity at 10 µM [5]: 99.6 ± 1.3%
- remaining activity at 10 µM [6]: 100 ± 1.2%
- Kd [7]: 5.9 µM
- remaining activity at 10 µM [7]: 30 ± 17.2%
- Kd ([8]; dose-response): 0.12 ± 0.11 µM
- percent of DMSO vehicle control [8]: 1.1±0.2%
- remaining activity at 10 µM [9]: 58.1 ± 8.9%

Compound: CC(C)(C)[C@H](NC(=O)/C=C/c1ccc(OP(=O)(O)O)cc1)C(=O)N1CCC[C@H]1C(=O)N(c1ccccc1)c1ccc(I)cc1 [STAT6-IN-3]
- remaining activity at 10 µM ([1]; primary screen, 10 μM): 67.6 ± 11%
- remaining activity at 10 µM ([2]; primary screen, 10 μM): 58.9 ± 43.2%
- KD ([3]; dose-response): No Hit
- remaining activity at 10 µM ([3]; primary screen, 10 μM): 32.1 ± 40.1%
- remaining activity at 10 µM ([4]; primary screen, 10 μM): 79.3 ± 7.7%
- remaining activity at 10 µM ([5]; primary screen, 10 μM): 46 ± 22.7%
- KD [6]: No Hit
- remaining activity at 10 µM ([6]; primary screen, 10 μM): 52.6 ± 50.6%
- Kd ([7]; read-out: KD): 0.01 µM
- remaining activity at 10 µM ([7]; primary screen, 10 μM): 0%
- Kd ([8]; dose-response, read-out: KD): 0.52 ± 0.27 µM
- percent of DMSO vehicle control [8]: 0.2±0.3%
- KD [9]: No Hit
- remaining activity at 10 µM ([9]; primary screen, 10 μM): 21.6 ± 25.3%

Compound: CC[C@H](C)[C@H](NC(=O)[C@H](CCC(=O)O)NC(=O)[C@H](CCC(=O)O)NC(=O)[C@H](Cc1ccc(OP(=O)(O)O)cc1)NC(C)=O)C(=O)N[C@@H](CCC(=O)O)C(N)=O [Ac-pYEEIE-NH2] (Ac-[pY]EEIE-NH2)
- percent of DMSO vehicle control ([1]; primary screen, 10 μM): 47.8%
- percent of DMSO vehicle control ([2]; primary screen, 10 μM): 134.5%
- percent of DMSO vehicle control ([3]; primary screen, 10 μM): 49.9±0.9%
- percent of DMSO vehicle control ([4]; primary screen, 10 μM): 56.1±7.2%
- percent of DMSO vehicle control ([5]; primary screen, 10 μM): 47.1±1.3%
- percent of DMSO vehicle control ([6]; primary screen, 10 μM): 149.7%
- percent of DMSO vehicle control ([7]; primary screen, 10 μM): 32.2%
- percent of DMSO vehicle control [8]: 106.6%
- percent of DMSO vehicle control ([9]; primary screen, 10 μM): 61.9±0.0%

Compound: O=C(CCl)Nc1cccc(CNC(=O)[C@H](Cc2ccc(OP(=O)(O)O)cc2)NC(=O)Cc2ccc(F)cc2)c1 [MN551]
- remaining activity at 10 µM ([1]; primary screen, 10 μM): 116%
- remaining activity at 10 µM ([2]; primary screen, 10 μM): 81.2%
- remaining activity at 10 µM ([3]; primary screen, 10 μM): 49.8%
- remaining activity at 10 µM ([4]; primary screen, 10 μM): 62.1 ± 2.4%
- remaining activity at 10 µM ([5]; primary screen, 10 μM): 63.2 ± 6.6%
- KD [6]: No Hit
- remaining activity at 10 µM ([6]; primary screen, 10 μM): 24.4%
- Kd ([7]; read-out: KD): 0.064 µM
- remaining activity at 10 µM ([7]; primary screen, 10 μM): 9.6 ± 3.9%
- KD ([8]; dose-response): No Hit
- percent of DMSO vehicle control [8]: 22±0.8%
- KD [9]: No Hit
- remaining activity at 10 µM ([9]; primary screen, 10 μM): 25.9%

Compound: CC(=O)N[C@@H](Cc1ccc(CP(=O)(O)O)cc1)C(=O)NC1(C(=O)N[C@@H](CC(N)=O)C(=O)NCCCc2c(O)ccc3ccccc23)CCCCC1 [CGP78850]
- remaining activity at 10 µM [1]: 42.1 ± 4.6%
- percent of DMSO vehicle control at 10 µM [2]: 136 ± 2.8%
- remaining activity at 10 µM [3]: 43.3 ± 1.3%
- remaining activity at 10 µM [4]: 45.5 ± 1.4%
- remaining activity at 10 µM [5]: 77.3 ± 6.6%
- remaining activity at 10 µM [6]: 116 ± 4.4%
- remaining activity at 10 µM [7]: 101 ± 1.6%
- percent of DMSO vehicle control [8]: 91.4±14.0%
- Kd [9]: 0.508 µM
- remaining activity at 10 µM [9]: 5 ± 1.1%

Compound: CC(=O)N1CC[C@H]2CC[C@@H](C(=O)N[C@@H](CCC(N)=O)C(=O)NC(c3ccccc3)c3ccccc3)N2C(=O)[C@@H](NC(=O)c2cc3cc(C(F)(F)P(=O)(O)O)ccc3[nH]2)C1 [SI-109]
- remaining activity at 10 µM [1]: 105%
- percent of DMSO vehicle control at 10 µM [2]: 149%
- remaining activity at 10 µM [3]: 128%
- remaining activity at 10 µM [4]: 110%
- remaining activity at 10 µM [5]: 223%
- remaining activity at 10 µM [6]: 153%
- remaining activity at 10 µM [7]: 123%
- Kd [8]: 0.24 ± 0.106 µM
- percent of DMSO vehicle control [8]: 7.3±0.1%
- remaining activity at 10 µM [9]: 110%

Compound: CC[C@H](C)[C@H](NC(=O)[C@H](CO)NC(=O)[C@H](CC(C)C)NC(=O)[C@H](CCCNC(=N)N)NC(=O)[C@H](CO)NC(=O)[C@H](CS)NC(C)=O)C(=O)N[C@@H](Cc1ccc(OP(=O)(O)O)cc1)C(=O)N[C@@H](CC(=O)O)C(=O)N[C@@H](CC(N)=O)C(=O)N[C@H](C(=O)N1CCC[C@H]1C(=O)NCC(N)=O)C(C)C [Ac-CSRLSIpYDNVPG-NH2] (Ac-CSRLSI[pY]DNVPG-NH2)
- Kd [9]: 0.0283 ± 0.00496 µM
